Data on 1 compound can be found in US20260199371A1, “COORDINATION COMPOUND, COMPOSITIONS, AND USES THEREOF FOR TREATING CANCERS” (HUEIYUAN BIOTECH LLC, priority 2023, published 2026).

For test [1], the system named is EMT markers in LoVo-OXAR cells. The following applies: immunofluorescence. An excerpt: (§1) Vimentin and E-cadherin are molecular markers linked to tumor progression through their roles in EMT, which is a pathological process contributing to migration and invasion of cancer cells and tumor progression. Vimentin is a key component of intermediate filaments, which helps maintain cellular integrity and resistance to stress. E-cadherin plays a role in maintaining epithelial phenotypes by mediating contact inhibition when cells proliferate and reach confluence. To further investigate the influence of the compound (II) on EMT marker expression, western blotting, immunofluorescence detection, and quantitative real-time reverse transcription polymerase chain reaction (qRT-PCR) were performed in LoVo-parental and LoVo-OXAR cells treated with various doses of the compound (II) for 24 hours.
(§2) The cells were then permeabilized with 0.1% Triton X-100 in 0.1% sodium citrate and the well was blocked with blocking buffer (2% bovine serum albumin), followed by immunofluorescence staining. The cells were incubated with primary antibodies against vimentin and E-cadherin for 24 hours at 4° C. and subsequently incubated with fluorescent secondary antibodies for 1 hour at 25° C. before DAPI staining and observation using fluorescence microscopy.

For test [2], the system named is EMT markers in LoVo-parental cells. The following applies: immunofluorescence.
Text: as §1, §2

The subject of the next test is HA22T-parental cells. To be noted: 24 hours.
The test system of a further test is TT cells. To be noted: 0.1-1000 μg/ml, 72 hours. The procedure: Human medullary thyroid carcinoma TT cells (commercially available from ATCC under the number CRL-1803) were cultured in F12K medium (Gibco™, Thermo Fisher Scientific, Waltham, MA, USA) supplemented with 10% FBS.

Take `CC(=O)[O-].CC(=O)[O-].CC(=O)[O-].CC(=O)[O-].CC(=O)[O-].CC(=O)[O-].O.O.O.O.O=[N+]([O-])[O-].[Cr+3].[Fe+3].[Fe+3].[OH-].[OH-]` [compound (II)]: the “expression of E-cadherin” value in test [1] and in test [2] was “significantly increased” each time. Also, the vimentin expression entry in test [1] and in test [2] was “significantly suppressed” throughout. In the test on HA22T-parental cells (0-1250 μg/ml), the “viability of HA22T-parental cells” value was “reduced the viability of both liver cancer cells in a dose-dependent manner”. Further, in the test with HA22T-parental cells (MTT), the “IC50 against HA22T-parental cells” value was “approximately 1000 μg/ml”. Also, the “viability of TT cells” value with TT cells is listed as “reduced the viability of the TT cells in a dose-dependent manner”.
